Laboratory results published in patent publication US6346261B1, “Pesticidal composition” (priority 1997, dated 2002).

System: eggs of cat flea
Assay: Hatching inhibition of cat flea eggs on treated filter paper (Test Example 1)
Format: in vivo, cat flea (Ctenocephalides felis)
Settings: 26° C., 95% humidity, 5 days, corrected against non-treated hatching ratio 92.4%
Experimental: Each of pyriproxyfen, 1S,3S,4S,6R-carane-3,4-diol and a mixture thereof was diluted with acetone, added dropwise to a filter paper (3.8 cm in diameter) and dried. About 20 eggs (within 24 hours after laid) of cat flea were set on the filter paper prepared above. The filter paper was held in a plastic plate, kept 26° C. of temperature and 95% of humidity for 5 days and hatching was observed.
Hatching inhibition ratio (%) in Table represents a corrected inhibition ratio (%) which is calculated by the following:
Hatching inhibition ratio (%)={(C−T)/C}×100
wherein C is a hatching ratio (92.4%) of flea at non-treated area and T is a hatching ratio of flea at treated area.
In the table, PY means pyriproxyfen and CA means 1S,3S,4S,6R-carane-3,4-diol. The treated dosage unit is mg/m^2.

| SMILES | Hatching inhibition ratio (%) (treated dosage 10 mg/m^2 on filter paper) | Hatching inhibition ratio (%) (treated dosage 100 mg/m^2 on filter paper) | Hatching inhibition ratio (%) (treated dosage 0.1 mg/m^2 on filter paper) |
| --- | --- | --- | --- |
| CC1(C)[C@@H]2C[C@H](O)[C@@](C)(O)C[C@@H]21 [CA, 1S,3S,4S,6R-carane-3,4-diol] | 3.1 | 12.1 |  |
| CC(COc1ccc(Oc2ccccc2)cc1)Oc1ccccn1 (stereo not drawn) [PY, pyriproxyfen] |  |  | 58.1 |
